Tests used:
[1] = xn = mol fraction of the nth substance listed; details: 101 kPa, Liquid, Vibrating tube method
[2] = 283.15 K; 101 kPa; Liquid; Vibrating tube method

O [water] + CC(C)COCCO
Details | mass density [kg/m3]
[1], 283.15 K, x2 = 0 | 999.699

CC(C)NCCO [2-isopropylaminoethanol] + O
mass density [kg/m3], [1]
Details | x1 = 0.00785 | x1 = 0.00993 | x1 = 0.0147 | x1 = 0.02052 | x1 = 0.02925 | x1 = 0.04009 | x1 = 0.04971 | x1 = 0.0589 | x1 = 0.06926 | x1 = 0.08132
283.15 K | 998.279 | 997.915 | 997.627 | 997.186 | 997.048 | 997.046 | 996.952 | 996.873 | 996.18 | 994.687
288.15 K | 997.569 | 997.164 | 996.747 | 996.156 | 995.726 | 995.322 | 994.86 | 994.475 | 993.417 | 991.662
293.15 K | 996.602 | 996.129 | 995.555 | 994.798 | 994.178 | 993.399 | 992.61 | 991.925 | 990.602 | 988.598
298.15 K | 995.343 | 994.859 | 994.252 | 993.36 | 992.43 | 991.335 | 990.229 | 989.248 | 987.663 | 985.438
303.15 K | 993.837 | 993.31 | 992.597 | 991.578 | 990.428 | 989.011 | 987.652 | 986.463 | 984.639 | 982.2

O [water]
Details | mass density [kg/m3]
[2] | 999.699

CCCCOCCO [2-butoxyethan-1-ol] + O
mass density [kg/m3], [1]
Details | x1 = 0.000906 | x1 = 0.001283 | x1 = 0.001685 | x1 = 0.001942 | x1 = 0.003834 | x1 = 0.006957 | x1 = 0.009993 | x1 = 0.01324
283.15 K | 999.515 | 999.44 | 999.376 | 999.379 | 999.137 | 998.855 | 998.677 | 998.516
288.15 K | 998.873 | 998.804 | 998.733 | 998.742 | 998.449 | 998.058 | 997.764 | 997.453
293.15 K | 997.98 | 997.897 | 997.814 | 997.774 | 997.436 | 996.956 | 996.553 | 996.129
298.15 K | 996.815 | 996.726 | 996.633 | 996.592 | 996.204 | 995.629 | 995.12 | 994.56
303.15 K | 995.386 | 995.295 | 995.201 | 995.143 | 994.715 | 994.053 | 993.447 | 992.75

O [water] + CC(C)NCCO
Details | mass density [kg/m3]
[1], 283.15 K, x2 = 0 | 999.699

O [water] + CCCCOCCO
Details | mass density [kg/m3]
[1], 283.15 K, x2 = 0 | 999.699

CC(C)COCCO [2-(2-methylpropoxy)ethanol] + O
mass density [kg/m3], [1]
Details | x1 = 0.000617 | x1 = 0.001164 | x1 = 0.001812 | x1 = 0.00198 | x1 = 0.003969 | x1 = 0.006759 | x1 = 0.009969 | x1 = 0.01319
283.15 K | 999.515 | 999.412 | 999.296 | 999.307 | 999.013 | 998.702 | 998.438 | 998.199
288.15 K | 998.897 | 998.784 | 998.655 | 998.645 | 998.299 | 997.897 | 997.523 | 997.151
293.15 K | 998.017 | 997.888 | 997.743 | 997.724 | 997.322 | 996.836 | 996.347 | 995.851
298.15 K | 996.846 | 996.707 | 996.548 | 996.506 | 996.06 | 995.497 | 994.904 | 994.282
303.15 K | 995.459 | 995.292 | 995.136 | 995.092 | 994.592 | 993.958 | 993.254 | 992.505
